According to patent publication US10544138B2, “Tricyclic kinase inhibitors of MELK and methods of use” (Dana-Farber Cancer Institute, Inc., priority 2015, dated 2020):
Values joined by “and” are separate entries in the source; they are usually repeats but may differ in a detail not shown here. Equal entries are not always repeated. “Also recorded” adds a separate entry of the source.

Assays:
[1] = tested on: U2OS-(H2B-GFP) cells; assay: Mitotic slippage, time-lapse imaging of U2OS-(H2B-GFP) cells; assay type: cell-based, human; conditions: 5 μM, 4 h exposure
Procedure: Mitotic cells were treated with THZ-4-63-1 at indicated concentrations for 4 h. Cells were collected for immunoblotting. Panel B contains time-lapse images of U2OS-(H2B-GFP) cells treated with THZ-4-63-1 (5 μM). […] Panel C contains blots showing proteasome-mediated degradation of Cyclin B1, Aurora B and MELK in THZ-4-63-1-induced mitotic slippage. Mitotic cells were treated as in Panel A with THZ-4-63-1 (5 μM), or MG132 (10 μM), or both for 4 h. Panel D contains a graph showing quantification of cell proliferation in the indicated breast cancer cell lines, which were treated with vehicle control or THZ-4-63-1 for one week (Top) and also contains bright-field images acquired from control cells or cells treated with THZ-4-63-1 (111 nM) (Bottom). […] Cells were treated with indicated drugs, and harvested in ten days for quantification of cell growth. The bold curve depicts the theoretic prediction of an additive action between paclitaxel and THZ-4-63-1.
Centromeric localization of CPC has been implicated in checkpoint signaling^8. […] We further found an impaired spindle checkpoint in cells with MELK knockdown (FIG. 9C).

[2] = biological target: T1, MELK (Homo sapiens, UniProt Q14680); assay: Electrophoretic mobility (auto-phosphorylation) of MELK in nocodazole-arrested mitotic cells, immunoblotting; assay type: cell-based; conditions: nocodazole-arrested mitotic cells (HeLa, MDA-MB-231), 30 min, increasing concentration
Procedure: (§1) […] assays were performed with recombinant protein of the indicated mitotic kinase (left) and AMPK family kinases (right) in the presence of THZ-4-63-1. […] Cells were treated with nocodazole (100 ng/ml) for 18 h or not treated (Asyn., asynchronous). Nocodazole-arrested mitotic cells (M) were isolated via shake-off. The attached cells enriched in G2 phase (G2) were harvested. A portion of the mitotic cells were washed off nocodazole and released into G1 phase after 4 hours of incubation (G1). […] In Panel D, mitotic lysates were prepared from the indicated cells, and treated with λ-phosphatase at 30° C. In Panel E, nocodazole-arrested mitotic cells were treated with increasing concentration of THZ-4-63-1 for 30 min. Cell lysates were subjected to immunoblotting.
(§2) Cell lysates were subjected to immunoblotting. […] The fluorescent signals of immunblotting were quantified using Image Studio Lite software (Licor Biosciences, Lincoln, Neb.). The signal of phosphorylated Aurora kinases was normalized to that of loading control (α-tubulin).
(§3) We next proceeded to test if THZ-4-63-1 inhibits MELK activity in vivo. With a lack of established kinase substrates of MELK during mitosis, we used the auto-phosphorylation of MELK as a surrogate to indicate the activity of MELK. […] We then harvested nocodazole-arrested mitotic cells, and treated cells with increasing concentrations of THZ-4-63-1.

[3] = biological target: T1, MELK; assay: Z′-LYTE biochemical assay, MELK inhibition; set-up: purchased Life Technologies; conditions: 25 uM ATP concentration; read-out: MELK IC50 as determined by Z′-LYTE biochemical assay
Procedure: The invention also provides methods for inhibiting MELK, comprising contacting MELK with a compound of the invention in an amount effective to inhibit MELK. In certain embodiments, the method is conducted in vitro. In certain embodiments, the method is conducted in vivo. Inhibition of MELK can be determined by the Z′-LYTE® biochemical assay from Life Technologies (Life Technologies Z′-LYTE® Screening Protocol and Assay Conditions, June 2012, incorporated herein by reference).
Generally, IC50 against MELK was determined by Z′-LYTE® biochemical assay and are measured in nM at 25 uM ATP concentration.

[4] = biological target: CDK1 (Homo sapiens, UniProt P06493); assay: Recombinant mitotic kinase assay, CDK1; assay type: biochemical; conditions: recombinant kinases
Procedure: as §1
To discover a selective MELK inhibitor, a few molecule scaffolds with the potential of binding to MELK were identified, including 2,4-disubstituted pyrimidines and benzonaphthyridinones. […] To investigate if THZ-4-63-1 confers selective inhibition on MELK, we tested its effect on other mitotic kinases. In assays using recombinant kinases, MELK kinase activity was 20-fold more sensitive to THZ-4-63-1, than that of Aurora A, Aurora B, CDK1, or PLK1 (FIG. 1B).

[5] = tested on: Histone H3 phosphorylation at Thr3; assay: Histone H3 Thr3 phosphorylation in arrested mitotic cells, immunoblotting; assay type: cell-based; conditions: paclitaxel- or nocodazole-arrested mitotic cells, 30 min, with MG132
Procedure: Cell lysates were prepared for immunoblotting. […] HeLa cells were treated with DMSO or THZ-4-63-1 (5 μM) for 4 h followed by 1 h treatment of MG132 (10 μM). Cells were fixed and stained with anti-H3T3ph and anti-CREST. […] Cells were treated as in FIG. 2, Panel D, and additionally treated with MG132 (10 μM) for 1 h before fixation. The histogram indicates the quantification of H3S10ph signal. […] MCF-10A cells stably expressing empty vector (EV) or MELK were fixed for immunostaining. Images were captured with identical exposure time. H3T3ph intensity was quantified by the use of ImageJ. […] Recombinant MELK protein (kinase domain) was incubated with recombinant Histone H3 for 30 min at 30° C. Samples were subjected to immunoblotting using the indicated antibodies. […] Cells stably expressing GFP-MELK were fixed by formaldehyde and stained with anti-H3S10ph. […] Asynchronized (Async.) or nocodazole-arrested mitotic cells were subjected to fractionation, with sample prepared for immunoblotting. Panels H and I are images showing that MELK inhibition impairs the localization of chromosome passenger complex (CPC), indicated by the immunofluorescence detecting Survivin (G) and Aurora B (H). In addition to the presence of doxycyclin or THZ-4-63-1, cells were treated with nocodazole (0.33 μM) and MG132 (10 μM) for 3 h before fixation.
Cell lysates were prepared for immunoblotting. […]

[6] = tested on: Aurora kinases; assay: Aurora kinase phosphorylation in mitotic cells, immunoblotting; assay type: cell-based; conditions: 30 min
Procedure: as §2
Cell lysates were prepared for immunoblotting. In Panels B and C, THZ-4-63-1 inhibits H3T3 phosphorylation in HeLa (B) and U2OS (C) cells. Nocodazole arrested mitotic cells were treated with THZ-4-63-1 at the indicated doses for 30 min. […] Cell lysates were subjected to immunblotting. The signal of H3T3 phosphorylation was normalized to that of α-tubulin (right).
as §3
We exposed paclitaxel- or nocodazole-arrested mitotic cells to the individual inhibitor for 30 min in the presence of MG132, and collected lysates for examining signaling involved in chromosome alignment. […] Recent studies unravel a novel role of Aurora B in phosphorylating Haspin^7, a major factor responsible for phosphorylating Histone H3 at Thr3^14. […]

T1 sequence (Q14680 whole entry): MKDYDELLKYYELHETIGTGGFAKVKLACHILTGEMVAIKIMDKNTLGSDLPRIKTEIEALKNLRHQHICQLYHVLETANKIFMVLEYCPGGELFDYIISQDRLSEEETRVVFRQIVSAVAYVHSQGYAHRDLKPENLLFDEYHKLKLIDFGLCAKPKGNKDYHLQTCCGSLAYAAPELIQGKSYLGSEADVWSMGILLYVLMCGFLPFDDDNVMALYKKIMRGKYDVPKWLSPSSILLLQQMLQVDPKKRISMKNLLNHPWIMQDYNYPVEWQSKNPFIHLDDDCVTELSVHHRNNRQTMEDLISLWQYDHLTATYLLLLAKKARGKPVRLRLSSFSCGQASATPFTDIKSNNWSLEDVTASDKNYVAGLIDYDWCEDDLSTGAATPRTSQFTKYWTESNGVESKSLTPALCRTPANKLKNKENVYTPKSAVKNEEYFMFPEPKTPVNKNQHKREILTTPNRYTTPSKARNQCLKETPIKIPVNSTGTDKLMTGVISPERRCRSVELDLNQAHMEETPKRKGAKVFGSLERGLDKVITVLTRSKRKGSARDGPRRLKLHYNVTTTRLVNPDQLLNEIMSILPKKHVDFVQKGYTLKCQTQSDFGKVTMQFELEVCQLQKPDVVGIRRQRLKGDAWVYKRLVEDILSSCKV
Sequence of CDK1 (P06493 whole entry, species assumed): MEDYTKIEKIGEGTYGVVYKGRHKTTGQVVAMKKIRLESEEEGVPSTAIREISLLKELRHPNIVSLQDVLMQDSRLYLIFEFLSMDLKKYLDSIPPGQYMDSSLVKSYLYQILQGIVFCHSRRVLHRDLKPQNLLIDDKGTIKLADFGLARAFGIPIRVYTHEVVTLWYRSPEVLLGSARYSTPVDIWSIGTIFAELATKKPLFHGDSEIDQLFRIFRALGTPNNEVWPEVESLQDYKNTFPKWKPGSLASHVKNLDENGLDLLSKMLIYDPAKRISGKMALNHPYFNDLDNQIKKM
Sequence of CDK1 (P14635 whole entry partner, species assumed): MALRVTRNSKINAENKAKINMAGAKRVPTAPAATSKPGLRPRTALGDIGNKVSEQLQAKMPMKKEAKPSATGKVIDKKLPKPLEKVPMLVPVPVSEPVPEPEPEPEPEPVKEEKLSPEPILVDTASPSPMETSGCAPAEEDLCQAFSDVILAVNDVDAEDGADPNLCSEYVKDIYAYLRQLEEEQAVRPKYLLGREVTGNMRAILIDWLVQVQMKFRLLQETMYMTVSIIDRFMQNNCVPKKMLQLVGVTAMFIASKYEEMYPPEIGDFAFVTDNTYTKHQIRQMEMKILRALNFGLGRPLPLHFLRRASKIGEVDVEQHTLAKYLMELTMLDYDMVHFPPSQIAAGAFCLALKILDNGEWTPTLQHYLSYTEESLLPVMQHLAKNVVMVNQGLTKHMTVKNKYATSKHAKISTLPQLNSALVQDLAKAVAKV

`CN(C)Cc1ccc(-n2c(=O)ccc3cnc4ccc(-c5cc(Cl)c(O)c(Cl)c5)cc4c32)cc1` [THZ-4-63-1] was tested, and the “Cells undergoing mitotic slippage” value [1] was “nearly half”, the “Electrophoretic mobility of mitotic MELK” value [2] was “increases the electrophoretic mobility of mitotic MELK; also recorded: readily altered the mobility shift in a dose-dependent manner” and the IC50 [3] was 10.8 nM and 10.5 nM. The “MELK kinase activity more sensitive than that of CDK1” value [4] was 20 fold, the “Histone H3 phosphorylation at Thr3” value [5] was “strong suppression” and the “Phosphorylation of Aurora kinases” value [6] was “lack of obvious inhibition; also recorded: did not inhibit”.
